Results: US11292770B2, “Pyridazinone herbicides” (FMC Corporation, priority 2017, dated 2022)

test system: ducksalad (Heteranthera limosa); experiment: Test B flooded paddy test, ducksalad; type: in vivo; conditions: Flood, 250 g ai/ha; scale of 0 to 100
Description: (§1) Plant species in the flooded paddy test selected from rice (Oryza sativa), sedge, umbrella (small-flower umbrella sedge, Cyperus difformis), ducksalad (Heteranthera limosa), and barnyardgrass (Echinochloa crus-galli) were grown to the 2-leaf stage for testing. At the time of treatment, test pots were flooded to 3 cm above the soil surface, treated by application of test compounds directly to the paddy water, and then maintained at that water depth for the duration of the test. Treated plants and controls were maintained in a greenhouse for 13 to 15 d, after which time all species were compared to controls and visually evaluated. Plant response ratings, summarized in Table B, are based on a scale of 0 to 100 where 0 is no effect and 100 is complete control. A dash (—) response means no test result.

Structure (SMILES)	Plant response rating, Ducksalad
Cc1nn(C)c(=O)c(-c2c3ccccc3cc3ccccc23)c1O [Compound 8]	90

test system: Foxtail, Giant; experiment: Test A preemergence, foxtail, giant; type: in vivo; conditions: 31 g ai/ha, 0 to 100 scale

Structure (SMILES)	Plant response rating, Foxtail, Giant
Cc1nn(C)c(=O)c(-c2c3ccccc3cc3ccccc23)c1O [Compound 8]	0

same assay, conditions: 125 g ai/ha, 0 to 100 scale

Structure (SMILES)	Plant response rating, Foxtail, Giant
Cc1nn(C)c(=O)c(-c2c3ccccc3cc3ccccc23)c1O [Compound 8]	10

test system: galium (catchweed bedstraw, Galium aparine); experiment: Test A postemergence, galium; type: in vivo; conditions: 31 g ai/ha, 0 to 100 scale
From the text: (§2) Seeds of plant species selected from barnyardgrass (Echinochloa crus-galli), kochia (Kochia scoparia), ragweed (common ragweed, Ambrosia elation), ryegrass, Italian (Italian ryegrass, Lolium multiflorum), foxtail, green (green foxtail, Setaria viridis), and pigweed (Amaranthus retroflexus) were planted into a blend of loam soil and sand and treated preemergence with a directed soil spray using test chemicals formulated in a non-phytotoxic solvent mixture which included a surfactant. At the same time, plants selected from these weed species and also wheat (Triticum aestivum), corn (Zea mays), blackgrass (Alopecurus myosuroides), and galium (catchweed bedstraw, Galium aparine) were planted in pots containing the same blend of loam soil and sand and treated with postemergence applications of test chemicals formulated in the same manner Plants ranged in height from 2 to 10 cm and were in the one- to two-leaf stage for the postemergence treatment. Treated plants and untreated controls were maintained in a greenhouse for approximately 10 d, after which time all treated plants were compared to untreated controls and visually evaluated for injury. Plant response ratings, summarized in Table A, are based on a 0 to 100 scale where 0 is no effect and 100 is complete control. A dash (—) response means no test result.

Structure (SMILES)	Plant response rating, Galium
Cc1nn(C)c(=O)c(-c2c3ccccc3cc3ccccc23)c1O [Compound 8]	80

same assay, conditions: 125 g ai/ha, 0 to 100 scale

Structure (SMILES)	Plant response rating, Galium
Cc1nn(C)c(=O)c(-c2c3ccccc3cc3ccccc23)c1O [Compound 8]	90

test system: ryegrass, Italian (Italian ryegrass, Lolium multiflorum); experiment: Test A postemergence, ryegrass, Italian; type: in vivo; conditions: 31 g ai/ha, 0 to 100 scale
From the text: as §2

Structure (SMILES)	Plant response rating, Ryegrass, Italian
Cc1nn(C)c(=O)c(-c2c3ccccc3cc3ccccc23)c1O [Compound 8]	90

same assay, conditions: 125 g ai/ha, 0 to 100 scale

Structure (SMILES)	Plant response rating, Ryegrass, Italian
Cc1nn(C)c(=O)c(-c2c3ccccc3cc3ccccc23)c1O [Compound 8]	100

test system: barnyardgrass (Echinochloa crus-galli); experiment: Test B flooded paddy test, barnyardgrass; type: in vivo; conditions: Flood, 250 g ai/ha; scale of 0 to 100, 0 no effect, 100 complete control
Description: as §1

Structure (SMILES)	Plant response rating, Barnyardgrass
Cc1nn(C)c(=O)c(-c2c3ccccc3cc3ccccc23)c1O [Compound 8]	15

test system: blackgrass (Alopecurus myosuroides); experiment: Test A postemergence, blackgrass; type: in vivo; conditions: 31 g ai/ha, 0 to 100 scale
From the text: as §2

Structure (SMILES)	Plant response rating, Blackgrass
Cc1nn(C)c(=O)c(-c2c3ccccc3cc3ccccc23)c1O [Compound 8]	0

same assay, conditions: 125 g ai/ha, 0 to 100 scale

Structure (SMILES)	Plant response rating, Blackgrass
Cc1nn(C)c(=O)c(-c2c3ccccc3cc3ccccc23)c1O [Compound 8]	30

test system: pigweed (Amaranthus retroflexus); experiment: Test A preemergence, pigweed; type: in vivo; conditions: 31 g ai/ha, 0 to 100 scale
From the text: as §2

Structure (SMILES)	Plant response rating, Pigweed
Cc1nn(C)c(=O)c(-c2c3ccccc3cc3ccccc23)c1O [Compound 8]	100

same assay, conditions: 125 g ai/ha, 0 to 100 scale

Structure (SMILES)	Plant response rating, Pigweed
Cc1nn(C)c(=O)c(-c2c3ccccc3cc3ccccc23)c1O [Compound 8]	100

test system: corn (Zea mays); experiment: Test A postemergence, corn; type: in vivo; conditions: 31 g ai/ha, 0 to 100 scale
From the text: as §2

Structure (SMILES)	Plant response rating, Corn
Cc1nn(C)c(=O)c(-c2c3ccccc3cc3ccccc23)c1O [Compound 8]	10

same assay, conditions: 125 g ai/ha, 0 to 100 scale

Structure (SMILES)	Plant response rating, Corn
Cc1nn(C)c(=O)c(-c2c3ccccc3cc3ccccc23)c1O [Compound 8]	10

test system: ragweed (common ragweed, Ambrosia elation); experiment: Test A postemergence, ragweed; type: in vivo; conditions: 31 g ai/ha, 0 to 100 scale
From the text: as §2

Structure (SMILES)	Plant response rating, Ragweed
Cc1nn(C)c(=O)c(-c2c3ccccc3cc3ccccc23)c1O [Compound 8]	90

same assay, conditions: 125 g ai/ha, 0 to 100 scale

Structure (SMILES)	Plant response rating, Ragweed
Cc1nn(C)c(=O)c(-c2c3ccccc3cc3ccccc23)c1O [Compound 8]	90

test system: sedge, umbrella (small-flower umbrella sedge, Cyperus difformis); experiment: Test B flooded paddy test, sedge, umbrella; type: in vivo; conditions: Flood, 250 g ai/ha; scale of 0 to 100
Description: as §1

Structure (SMILES)	Plant response rating, Sedge, Umbrella
Cc1nn(C)c(=O)c(-c2c3ccccc3cc3ccccc23)c1O [Compound 8]	90

test system: kochia (Kochia scoparia); experiment: Test A preemergence, kochia; type: in vivo; conditions: 31 g ai/ha, 0 to 100 scale
From the text: as §2

Structure (SMILES)	Plant response rating, Kochia
Cc1nn(C)c(=O)c(-c2c3ccccc3cc3ccccc23)c1O [Compound 8]	0

same assay, conditions: 125 g ai/ha, 0 to 100 scale

Structure (SMILES)	Plant response rating, Kochia
Cc1nn(C)c(=O)c(-c2c3ccccc3cc3ccccc23)c1O [Compound 8]	0

test system: kochia (Kochia scoparia); experiment: Test A postemergence, kochia; type: in vivo; conditions: 31 g ai/ha, 0 to 100 scale
From the text: as §2

Structure (SMILES)	Plant response rating, Kochia
Cc1nn(C)c(=O)c(-c2c3ccccc3cc3ccccc23)c1O [Compound 8]	0

same assay, conditions: 125 g ai/ha, 0 to 100 scale

Structure (SMILES)	Plant response rating, Kochia
Cc1nn(C)c(=O)c(-c2c3ccccc3cc3ccccc23)c1O [Compound 8]	10

test system: wheat (Triticum aestivum); experiment: Test A postemergence, wheat; type: in vivo; conditions: 31 g ai/ha, 0 to 100 scale
From the text: as §2

Structure (SMILES)	Plant response rating, Wheat
Cc1nn(C)c(=O)c(-c2c3ccccc3cc3ccccc23)c1O [Compound 8]	0

same assay, conditions: 125 g ai/ha, 0 to 100 scale

Structure (SMILES)	Plant response rating, Wheat
Cc1nn(C)c(=O)c(-c2c3ccccc3cc3ccccc23)c1O [Compound 8]	0

test system: ryegrass, Italian (Italian ryegrass, Lolium multiflorum); experiment: Test A preemergence, ryegrass, Italian; type: in vivo; conditions: 31 g ai/ha, 0 to 100 scale
From the text: as §2

Structure (SMILES)	Plant response rating, Ryegrass, Italian
Cc1nn(C)c(=O)c(-c2c3ccccc3cc3ccccc23)c1O [Compound 8]	10

same assay, conditions: 125 g ai/ha, 0 to 100 scale

Structure (SMILES)	Plant response rating, Ryegrass, Italian
Cc1nn(C)c(=O)c(-c2c3ccccc3cc3ccccc23)c1O [Compound 8]	50

test system: rice (Oryza sativa); experiment: Test B flooded paddy test, rice; type: in vivo; conditions: Flood, 250 g ai/ha; scale of 0 to 100
Description: as §1

Structure (SMILES)	Plant response rating, Rice
Cc1nn(C)c(=O)c(-c2c3ccccc3cc3ccccc23)c1O [Compound 8]	15

test system: Foxtail, Giant; experiment: Test A postemergence, foxtail, giant; type: in vivo; conditions: 31 g ai/ha, 0 to 100 scale

Structure (SMILES)	Plant response rating, Foxtail, Giant
Cc1nn(C)c(=O)c(-c2c3ccccc3cc3ccccc23)c1O [Compound 8]	10

same assay, conditions: 125 g ai/ha, 0 to 100 scale

Structure (SMILES)	Plant response rating, Foxtail, Giant
Cc1nn(C)c(=O)c(-c2c3ccccc3cc3ccccc23)c1O [Compound 8]	60

test system: barnyardgrass (Echinochloa crus-galli); experiment: Test A postemergence, barnyardgrass; type: in vivo; conditions: 31 g ai/ha, 0 to 100 scale
From the text: as §2

Structure (SMILES)	Plant response rating, Barnyardgrass
Cc1nn(C)c(=O)c(-c2c3ccccc3cc3ccccc23)c1O [Compound 8]	10

same assay, conditions: 125 g ai/ha, 0 to 100 scale, 0 no effect, 100 complete control

Structure (SMILES)	Plant response rating, Barnyardgrass
Cc1nn(C)c(=O)c(-c2c3ccccc3cc3ccccc23)c1O [Compound 8]	50

test system: ragweed (common ragweed, Ambrosia elation); experiment: Test A preemergence, ragweed; type: in vivo; conditions: 31 g ai/ha, 0 to 100 scale
From the text: as §2

Structure (SMILES)	Plant response rating, Ragweed
Cc1nn(C)c(=O)c(-c2c3ccccc3cc3ccccc23)c1O [Compound 8]	40

same assay, conditions: 125 g ai/ha, 0 to 100 scale

Structure (SMILES)	Plant response rating, Ragweed
Cc1nn(C)c(=O)c(-c2c3ccccc3cc3ccccc23)c1O [Compound 8]	90

test system: barnyardgrass (Echinochloa crus-galli); experiment: Test A preemergence, barnyardgrass; type: in vivo; conditions: 31 g ai/ha, 0 to 100 scale
From the text: as §2

Structure (SMILES)	Plant response rating, Barnyardgrass
Cc1nn(C)c(=O)c(-c2c3ccccc3cc3ccccc23)c1O [Compound 8]	0

same assay, conditions: 125 g ai/ha, 0 to 100 scale

Structure (SMILES)	Plant response rating, Barnyardgrass
Cc1nn(C)c(=O)c(-c2c3ccccc3cc3ccccc23)c1O [Compound 8]	10

test system: pigweed (Amaranthus retroflexus); experiment: Test A postemergence, pigweed; type: in vivo; conditions: 31 g ai/ha, 0 to 100 scale
From the text: as §2

Structure (SMILES)	Plant response rating, Pigweed
Cc1nn(C)c(=O)c(-c2c3ccccc3cc3ccccc23)c1O [Compound 8]	90

same assay, conditions: 125 g ai/ha, 0 to 100 scale

Structure (SMILES)	Plant response rating, Pigweed
Cc1nn(C)c(=O)c(-c2c3ccccc3cc3ccccc23)c1O [Compound 8]	100
